Measurements published in patent US20220370416A1, “COMPOUNDS AND METHODS FOR TARGETED DEGRADATION OF KRAS” (Arvinas Operations, Inc., priority 2020, published 2022).

Columns and labels:
HiBit-KRAS^G12C [1] = biological target: T1, HiBit-KRAS^G12C (Homo sapiens, UniProt P01116, G12C); assay: HiBit degradation assay in SW1573 HiBit-KRas^G12C cells; assay type: cell-based; parameters: expressed in transfected cells; host or cells: SW1573 (clone E6), modified pcDNA3.1 vector, TK promoter; settings: 24 hours; for Dmax: SW1573, SW1573 HiBit-KRas^G12C; for DC50: SW1573 HiBit-KRas^G12C
Outline: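 SW1573 cells stably expressing N-terminally HiBit-tagged KRAS G12C, under the TK promoter, were treated 24 h at 37 °C with 10 μM to 20 nM compound in 0.1% or 0.5% DMSO. Residual HiBit luminescence normalised to DMSO and fitted with a 4-parameter model for DC50 and Dmax. Points with ≥50% viability loss (alamar blue) excluded.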

HiBit-KRAS^G12C [2] = biological target: T1, HiBit-KRAS^G12C; assay: HiBit degradation assay in MiaPaCa-2 HiBit-KRas^G12C cells; assay type: cell-based; settings: 24 hours; for Dmax: MIA PaCa-2, MiaPaCa-2 HiBit-KRas^G12C cells, maximum degradation; for DC50: MiaPaCa-2 HiBit-KRas^G12C cells
Outline: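 MiaPaCa-2 cells with CRISPR N-terminal HiBit knock-in on one endogenous KRAS^G12C allele, treated 24 hours at 37° C with compound titrated 10 μM to 20 nM (0.1% or 0.5% DMSO). Lytic HiBit luminescence normalized to DMSO, 4-parameter fit giving DC50 and Dmax; points cytotoxic to […] cells by alamar blue excluded.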

[3] = 0.5% DMSO, read-out: KRas^G12C-HiBiT (SW1573; 0.5% DMSO) Dmax**
[4] = read-out: KRas^G12C-HiBiT (SW1573; 0.5% DMSO) IC50***, 0.5% DMSO
[5] = 0.5% DMSO, read-out: KRas^G12C-HiBiT (MiaPaCa; 0.5% DMSO) DMax
[6] = read-out: KRas^G12C-HiBiT (MiaPaCa; 0.5% DMSO) IC50, 0.5% DMSO
[7] = 0.1% DMSO, read-out: KRas^G12C-HiBit (SW1573; 0.1% DMSO) Dmax**
[8] = 0.1% DMSO, read-out: KRas^G12C-HIBit (SW1573; 0.1% DMSO) DC50*

T1 sequence (P01116 1-186 isoform P01116-2 G12C limits assumed): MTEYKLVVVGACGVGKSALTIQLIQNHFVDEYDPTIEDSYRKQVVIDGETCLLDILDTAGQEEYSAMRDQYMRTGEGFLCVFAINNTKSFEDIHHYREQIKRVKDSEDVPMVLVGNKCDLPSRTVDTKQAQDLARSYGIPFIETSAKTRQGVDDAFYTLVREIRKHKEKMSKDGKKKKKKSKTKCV

Row | Dmax (HiBit-KRAS^G12C [1]; [3]) | DC50 (HiBit-KRAS^G12C [1]; [4]) | Dmax (HiBit-KRAS^G12C [2]; [5]) | DC50 (HiBit-KRAS^G12C [2]; [6]) | Dmax (HiBit-KRAS^G12C [1]; [7]) | DC50 (HiBit-KRAS^G12C [1]; [8]) | Dmax (HiBit-KRAS^G12C [2]; 0.1% DMSO, read-out: KRas^G12C-HiBiT (MiaPaCa; 0.1% DMSO) DMax) | DC50 (HiBit-KRAS^G12C [2]; read-out: KRas^G12C-HiBiT (MiaPaCa; 0.1% DMSO) IC50, 0.1% DMSO) | SMILES
1 | > 70% | < 0.1 µM | > 70% | < 0.1 µM |  |  |  |  | C=C(F)C(=O)N1CCN(c2nc(OCCN3CCC(C)(COc4cc([C@H](C(=O)N5C[C@H](O)C[C@H]5C(=O)N[C@@H](C)c5ccc(-c6scnc6C)cc5)C(C)C)on4)CC3)nc3c(F)c(-c4cc(O)cc5ccccc45)c(Cl)cc23)C[C@@H]1CC#N (atropisomer, axis not shown) [Compound 123, (2S,4R)-1-[(2R)-2-[3-({1-[2-({6-chloro-4-[(3S)-3-(cyanomethyl)-4-(2-fluoroprop-2-enoyl)piperazin-1-yl]-8-fluoro-7-(3-hydroxynaphthalen-1-yl)quinazolin-2-yl}oxy)ethyl]-4-methylpiperidin-4-yl}methoxy)-1,2-oxazol-5-yl]-3-methylbutanoyl]-4-hydroxy-N-[(1S)-1-[4-(4-methyl-1,3-thiazol-5-yl)phenyl]ethyl]pyrrolidine-2-carboxamide]
2 |  | > 1 µM |  | > 1 µM |  |  |  |  | C=CC(=O)N1CCN(c2nc(OCCN3CCC(COc4cc([C@@H](C(=O)N5C[C@H](O)C[C@H]5C(=O)N[C@@H](C)c5ccc(-c6scnc6C)cc5)C(C)C)on4)CC3)nc3c(F)c(-c4cc(O)cc5ccccc45)c(Cl)cc23)C[C@@H]1CC#N [Compound 172, (2S,4R)-1-[(2S)-2-[3-({1-[2-({6-chloro-4-[(3S)-3-(cyanomethyl)-4-(prop-2-enoyl)piperazin-1-yl]-8-fluoro-7-(3-hydroxynaphthalen-1-yl)quinazolin-2-yl}oxy)ethyl]piperidin-4-yl}methoxy)-1,2-oxazol-5-yl]-3-methylbutanoyl]-4-hydroxy-N-[(1S)-1-[4-(4-methyl-1,3-thiazol-5-yl)phenyl]ethyl]pyrrolidine-2-carboxamide]
3 |  | < 0.1 µM |  | 0.1 to 1 µM |  |  |  |  | C=CC(=O)N1CCN(c2nc(OCCN3CCC(COc4cc([C@H](C(=O)N5C[C@H](O)C[C@H]5C(=O)N[C@@H](C)c5ccc(-c6ccnn6C)cc5)C(C)C)on4)CC3)nc3c(F)c(-c4cc(O)cc5ccccc45)c(Cl)cc23)C[C@@H]1CC#N [Compound 157, (2S,4R)-1-[(2R)-2-[3-({1-[2-({6-chloro-4-[(3S)-3-(cyanomethyl)-4-(prop-2-enoyl)piperazin-1-yl]-8-fluoro-7-(3-hydroxynaphthalen-1-yl)quinazolin-2-yl}oxy)ethyl]piperidin-4-yl}methoxy)-1,2-oxazol-5-yl]-3-methylbutanoyl]-4-hydroxy-N-[(1S)-1-[4-(1-methyl-1H-pyrazol-5-yl)phenyl]ethyl]pyrrolidine-2-carboxamide]
4 |  |  |  |  | < 35% | 0.1 to 1 µM | < 35% |  | C=CC(=O)N1CCN(c2nc(OCCN3CCC(OCCOc4cc([C@@H](C(=O)N5C[C@H](O)C[C@H]5C(=O)N[C@@H](C)c5ccc(-c6scnc6C)cc5)C(C)C)on4)CC3)nc3c(F)c(-c4cc(O)cc5ccccc45)c(Cl)cc23)C[C@@H]1CC#N [Compound 22, (2S,4R)-1-[(2S)-2-{3-[2-({1-[2-({6-chloro-4-[(3S)-3-(cyanomethyl)-4-(prop-2-enoyl)piperazin-1-yl]-8-fluoro-7-(3-hydroxynaphthalen-1-yl)quinazolin-2-yl}oxy)ethyl]piperidin-4-yl}oxy)ethoxy]-1,2-oxazol-5-yl}-3-methylbutanoyl]-4-hydroxy-N-[(1S)-1-[4-(4-methyl-1,3-thiazol-5-yl)phenyl]ethyl]pyrrolidine-2-carboxamide]
5 |  | 0.1 to 1 µM |  | > 1 µM |  |  |  |  | C=C(F)C(=O)N1CCN(c2nc(OCCN3CCC4(CC3)CN(c3cc([C@@H](C(=O)N5C[C@H](O)C[C@H]5C(=O)N[C@@H](C)c5ccc(-c6ccnn6C)cc5)C(C)C)on3)C4)nc3c(F)c(-c4cc(O)cc5ccccc45)c(Cl)cc23)C[C@@H]1CC#N (atropisomer, axis not shown) [Compound 103, (2S,4R)-1-[(2S)-2-(3-{7-[2-({6-chloro-4-[(3S)-3-(cyanomethyl)-4-(2-fluoroprop-2-enoyl)piperazin-1-yl]-8-fluoro-7-(3-hydroxynaphthalen-1-yl)quinazolin-2-yl}oxy)ethyl]-2,7-diazaspiro[3.5]nonan-2-yl}-1,2-oxazol-5-yl)-3-methylbutanoyl]-4-hydroxy-N-[(1S)-1-[4-(1-methyl-1H-pyrazol-5-yl)phenyl]ethyl]pyrrolidine-2-carboxamide]
6 | 35 to 70% |  | < 35% |  | < 35% | 0.1 to 1 µM |  | > 1 µM | C=CC(=O)N1CCN(c2nc(OCCN3CCC(OCCOCCOCC(=O)N[C@H](C(=O)N4C[C@H](O)C[C@H]4C(=O)N[C@@H](C)c4ccc(-c5scnc5C)cc4)C(C)(C)C)CC3)nc3c(F)c(-c4cc(O)cc5ccccc45)c(Cl)cc23)CC1 [Compound 60, (2S,4R)-1-[(2S)-2-{2-[2-(2-{[1-(2-{[6-chloro-8-fluoro-7-(3-hydroxynaphthalen-1-yl)-4-[4-(prop-2-enoyl)piperazin-1-yl]quinazolin-2-yl]oxy}ethyl)piperidin-4-yl]oxy}ethoxy)ethoxy]acetamido}-3,3-dimethylbutanoyl]-4-hydroxy-N-[(1S)-1-[4-(4-methyl-1,3-thiazol-5-yl)phenyl]ethyl]pyrrolidine-2-carboxamide]
7 |  | > 1 µM | < 35% | 0.1 to 1 µM |  |  |  |  | C=CC(=O)N1CCN(c2nc(OCCN3CCC4(CC3)CN(c3cc([C@@H](C(=O)N5C[C@H](O)C[C@H]5C(=O)N[C@@H](C)c5ccc(-c6scnc6C)cc5)C(C)C)on3)C4)nc3c(F)c(-c4cc(O)cc5ccccc45)c(Cl)cc23)C[C@@H]1CC#N (atropisomer, axis not shown) [Compound 108, (2S,4R)-1-[(2S)-2-(3-{7-[2-({6-chloro-4-[(3S)-3-(cyanomethyl)-4-(prop-2-enoyl)piperazin-1-yl]-8-fluoro-7-(3-hydroxynaphthalen-1-yl)quinazolin-2-yl}oxy)ethyl]-2,7-diazaspiro[3.5]nonan-2-yl}-1,2-oxazol-5-yl)-3-methylbutanoyl]-4-hydroxy-N-[(1S)-1-[4-(4-methyl-1,3-thiazol-5-yl)phenyl]ethyl]pyrrolidine-2-carboxamide]

Row | SMILES | Dmax (HiBit-KRAS^G12C [1]; [3]) | DC50 (HiBit-KRAS^G12C [1]; [4]) | Dmax (HiBit-KRAS^G12C [2]; [5]) | DC50 (HiBit-KRAS^G12C [2]; [6]) | Dmax (HiBit-KRAS^G12C [1]; [7]) | DC50 (HiBit-KRAS^G12C [1]; [8]) | Dmax (HiBit-KRAS^G12C [2]; 0.1% DMSO, read-out: KRas^G12C-HiBiT (MiaPaCa; 0.1% DMSO) DMax) | DC50 (HiBit-KRAS^G12C [2]; read-out: KRas^G12C-HiBiT (MiaPaCa; 0.1% DMSO) IC50, 0.1% DMSO)
8 | C=CC(=O)N1CCN(c2nc(OCCN3CCC(COCC(=O)N[C@H](C(=O)N4C[C@@H](O)C[C@H]4C(=O)N[C@@H](C)c4ccc(-c5scnc5C)cc4)C(C)(C)C)CC3)nc3c(F)c(-c4cc(O)cc5ccccc45)c(Cl)cc23)C[C@@H]1CC#N (atropisomer, axis not shown) [Compound 162, (2S,4S)-1-[(2S)-2-[2-({1-[2-({6-chloro-4-[(3S)-3-(cyanomethyl)-4-(prop-2-enoyl)piperazin-1-yl]-8-fluoro-7-(3-hydroxynaphthalen-1-yl)quinazolin-2-yl}oxy)ethyl]piperidin-4-yl}methoxy)acetamido]-3,3-dimethylbutanoyl]-4-hydroxy-N-[(1S)-1-[4-(4-methyl-1,3-thiazol-5-yl)phenyl]ethyl]pyrrolidine-2-carboxamide] | < 35% |  | 35 to 70% |  |  |  |  | 
